According to US7615638B2, “Synthesis of grossularines-1 and analogs thereof and method of use” (City of Hope, priority 2006, dated 2009):
Read-outs that look alike come from different tables or passages of the source.

Tested on: DU145 human prostate cancer cells
Assay: MTS viability assay in DU145 human prostate cancer cells
Conditions: for IC50: read-out: IC50 (cell viability); for cell viability (cytotoxicity), initial screening: 30 μM compound, DU145 cells (FIG. 8)
[1] = 0.1 to 20 μM, 48 h, MTS, DU145 cells (FIGS. 9-12)

Protocol: An MTS assay is a colorimetric experimental method to determine the number of viable cells in cytotoxicity assays and utilizes 3-(4,5-dimethylthiazol-2-yl)-5-(3-carboxymethoxyphenyl)-2-(4-sulfophenyl)-2H-tetrazolium, inner salt (MTS).
The experimental setup was as follows: DU145 human prostate cancer cells were obtained from ATCC and cultured in RPMI-1640 medium containing 10% fetal bovine serum (FBS), 100 units/ml of penicillin, and 100 μg/ml streptomycin. All cells were maintained in a 5% CO2 atmosphere at 37° C. To determine the viability of the cells, MTS assays were performed as described by the supplier (Promega; Madison, Wis.). Briefly, cells (5,000/well) were seeded in 96-well plates and incubated overnight at 37° C. in 5% CO2. Cells were treated for 48 h with 30 μM of each compound for initial screenings.
MTS dye was added to each well for 1 h. Cell viability was determined by tetrazolium conversion to its formazan dye and absorbance of formazan was measured at 490 nm. Values are the mean ±SD. Each experiment was performed in quadruplicate.
Dimethyl sulfoxide (DMSO) was used as the vehicle control. MTS dye was added to each 96-well plate well for one hour. Cell viability was determined by tetrazolium conversion to its formazan dye and absorbance of formazan was measured at 490 nm using an automated ELISA plate reader. The production of formazan dye was directly proportional to the number of living cells.
DU145 cells (5,000 cells/each well) were treated in dose-dependent manner for 48 h. Then, MTS assay was performed with four samples for each experiment.

Compound	IC50 (Homo sapiens, DU-145, 48 h) [µM]	cell viability (cytotoxicity), initial screening (48 h, MTS)	IC50 [1] [µM]
CN(C)c1nc2c([nH]1)c(C(=N)c1c[nH]c3ccccc13)nc1[nH]c3ccccc3c12 [Compound 8]	1.8		
grossularine-1 [Compound 1]		complete loss of cell viability	10.3
N,N-didesmethylgrossularine-1 [Compound 2]		complete loss of cell viability	7.3
